The record followed here is article PMC3848914, “Histone deacetylase (HDAC) inhibitory and antiproliferative activities of phenolic-rich extracts derived from the rhizome of Hydnophytum formicarum Jack.: sinapinic acid acts as HDAC inhibitor” (BMC Complementary and Alternative Medicine, 2013).

Assay [1] relates to HeLa cells. Nature of the assay: Apoptosis analysis (Annexin V/PI flow cytometry) in HeLa cells. The class given is cell-based, human. The following applies: 6 h-treatment. How it is done: Apoptosis analysis was performed by using a Vybrant Apoptosis Assay Kit #2 (Molecular Probes, Invitrogen Corporation, Carlsbad, CA, U.S.A.) according to the manufacturer’s instructions. Briefly, cells were seeded at 1.2 × 10^6 cells/4 ml in a 4.5-cm dish, incubated for 24 hours, and treated with different concentrations of the extracts or sinapinic acid for 6 hours. Cells were harvested by trypsinization, washed with cold PBS, and resuspended in the Annexin-binding buffer. Cell density was determined and diluted in the annexin-binding buffer to 10^5 cells per assay. Cells were incubated with Alexa Fluor 488 Annexin V and Propidium iodide (PI) at room temperature for 15 minutes. Following the incubation, cells were analyzed by flow cytometry using a Beckman Coulter Cytomics FC500 MPL flow cytometry (Beckman Coulter, Miami, FL, U.S.A.). The flow cytometry results were confirmed by viewing the cells under a fluorescence microscope.
(In general: A flow cytometer gives signals particle by particle.)

The target of assay [2] is HDAC enzymes (HeLa nuclear extract). Nature of the assay: In vitro HDAC inhibition activity assay (Fluor-de-Lys kit). The class given is biochemical, human. How it is done: HDAC inhibitory activity of the H. formicarum Jack. rhizome extracts, sinapinic acid (Sigma) and sodium butyrate (Sigma) was determined by using the Fluor-de-Lys HDAC activity assay kit (Biomol, Enzo Life Sciences International, Inc., Plymount Meeting, PA, U.S.A.). The assay was performed according to the manufacturer’s instructions. Fluorescence was measured using a spectra Max Gemini XPS microplate spectrofluorometer (Molecular Devices, Sunnyvale, CA, U.S.A.) with excitation at 360 nm and emission at 460 nm. Inhibition of HDAC activity was monitored by a decrease in fluorescence signal.
The effect of various polarity extracts including fractionated solvent extracts from hexane soluble fraction, ethyl acetate soluble fraction, methanol soluble fraction and also ethanolic crude extract on in vitro HDAC activity was examined by using HeLa nuclear extract as a source of the HDAC enzymes.

For assay [3], the system named is HeLa cells. Nature of the assay: Antiproliferative activity assay (WST-8), HeLa cells. The assay is classed as cell-based, human. Conditions: compounds. How it is done:
(§1) Cells were seeded in a 96-well plate at cell density of 10^4 cells/well and incubated for 24 hours. Sample groups were treated with different concentrations of H. formicarum Jack. rhizome extracts (0.5-3.0 mg/mL), sinapinic acid (0.5-3.0 mM), or sodium butyrate (0.5-3.0 mM) for 24, 48 and 72 hours. Vehicle control groups were added with DMSO (final concentration of 0.05%) or double distilled water. Cell proliferation assays were performed using a WST-8 Cell Proliferation Assay Kit (BioVision, Mountain View, CA, U.S.A.) according to the manufacturer’s instructions. Absorbance (A) was measured at 415 nm using a microtiter plate reader (Bio-Rad Laboratories, Hercules, CA, U.S.A.). The absorbance at 655 nm was used as a reference wavelength. Cell proliferation or cell growth was determined as a percentage of the vehicle control by an equation of;
(§2) %CellProliferation=controlA‒sampleA/controlA×100.
(Tetrazolium dyes change colour on reduction, which living cells bring about.)

The test system of assay [4] is Vero cells. Nature of the assay: Antiproliferative activity assay (WST-8), Vero cells. The class given is cell-based. The following applies: compounds. How it is done: as §1, §2
The subject of assay [5] is histone H4 acetylation in HeLa cells. Briefly: HDAC inhibition in HeLa cells: histone acetylation by AUT gel electrophoresis. The class given is cell-based, human. Conditions: 6 h-treatment. How it is done: Cells grown in a 4.5-cm dish were treated with either solvent control or the sample for 6 hours, and the histone proteins were then isolated according to the Abcam’s protocol (Abcam Inc., Cambridge, MA, U.S.A.) with some modifications. In brief, cells were harvested by trypsinization, washed with PBS, and then resuspended in Triton Extraction Buffer (TEB; PBS containing 0.5% (v/v) Triton X-100, 2 mM phenylmethylsulfonyl fluoride, 0.02% (w/v) NaN3) at a cell density of 10^5 cells/ml. The cells were incubated on ice and agitated periodically for 10 minutes. The suspension was centrifuged at 7,500 rpm for 10 minutes at 4°C to spin down the nuclei and the supernatant was discarded. The nuclei pellet was resuspended in 0.2 M HCl at a density of 10^6 nuclei/ml and incubated overnight at 4°C. […] Protein concentration was measured by using a Bio-Rad protein assay kit (Bio-Rad Laboratories, Hercules, CA, U.S.A.) based on the Bradford method.
Inhibition on acetylation of cellular histones was analyzed by gel electrophoresis using acid urea/Triton-X-100 (AUT) gels. […]
HDAC inhibition by ethanolic crude extract, phenolic-rich extract and sinapinic acid in HeLa cells was analyzed by AUT gel electrophoresis, whereby each cellular core histone (H2A, H2B, H3, and H4) with different extent of acetylation can be separated. […]

For assay [6], the system named is HT29 cells. Briefly: Antiproliferative activity assay (WST-8), HT29 cells. The class given is cell-based, human. Conditions: compounds. How it is done: as §1, §2
In assay [7] the test system is HCT116 cells. Briefly: Antiproliferative activity assay (WST-8), HCT116 cells. The following applies: compounds. The class given is cell-based, human. How it is done:
as §1, §2

Assay [8] deals with Jurkat cells. Nature of the assay: Antiproliferative activity assay (WST-8), Jurkat cells. The following applies: compounds. The assay is classed as cell-based, human. How it is done: as §1, §2
In assay [9] the test system is MCF-7 cells. Briefly: Antiproliferative activity assay (WST-8), MCF-7 cells. The class given is cell-based, human. Conditions: compounds. How it is done: as §1, §2
[10] abbreviates: 72 h, read-out: IC50 values, HeLa cells 72 h.

SMILES strings stand for the structures. Where two headings read alike, the source gives them in different places. Bounds are passed on as bounds.

For the compound `CC[C@@]1(O)C(=O)OCc2c1cc1n(c2=O)Cc2cc3ccccc3nc2-1` [Camptothecin], in assay [1] (0.1 mg/mL), the “Number of Late Apoptotic cells (%)” value is recorded as 3.55 ± 1.06%.

As to `COc1cc(/C=C/C(=O)O)cc(OC)c1O` [Sinapinic acid, sinapinic acid], the IC50 (usually the concentration that gives 50% inhibition) was 2270 ± 130 µM in assay [2]; 2350 ± 30 µM in assay [3] (Homo sapiens, HeLa, 24 h, 24 h, read-out: IC50 values, HeLa cells 24 h); 2040 ± 60 µM in [3] (Homo sapiens, HeLa, 48 h, 48 h, read-out: IC50 values, HeLa cells 48 h); 910 ± 20 µM in assay [3] (Homo sapiens, HeLa, 72 h, 72 h, read-out: IC50 values, HeLa cells 72 h); 900 ± 20 µM in assay [3] (setting [10]); above 3000 µM in assay [4] (Chlorocebus sabaeus, Vero, 24 h, read-out: IC50 values, Vero cells 24 h). Further, the 50% inhibitory concentration (IC50) is above 3000 µM in assay [4] (Chlorocebus sabaeus, Vero, 48 h, read-out: IC50 values, Vero cells 48 h); above 3000 µM in [4] (Chlorocebus sabaeus, Vero, 72 h, read-out: IC50 values, Vero cells 72 h); 2970 ± 50 µM in [6] (Homo sapiens, HT-29, 24 h, read-out: IC50 values, HT29 cells 24 h); 2200 ± 30 µM in [6] (Homo sapiens, HT-29, 48 h, read-out: IC50 values, HT29 cells 48 h); 1600 ± 20 µM in assay [6] (Homo sapiens, HT-29, 72 h, read-out: IC50 values, HT29 cells 72 h); above 3000 µM in assay [7] (Homo sapiens, HCT-116, 24 h, read-out: IC50 values, HCT116 cells 24 h). The IC50 was 2200 ± 150 µM in [7] (Homo sapiens, HCT-116, 48 h, read-out: IC50 values, HCT116 cells 48 h); 2100 ± 60 µM in assay [7] (Homo sapiens, HCT-116, 72 h, read-out: IC50 values, HCT116 cells 72 h); above 3000 µM in [8] (Homo sapiens, Jurkat, 24 h, read-out: IC50 values, Jurkat cells 24 h); above 3000 µM in assay [8] (Homo sapiens, Jurkat, 48 h, read-out: IC50 values, Jurkat cells 48 h); 2800 ± 120 µM in [8] (Homo sapiens, Jurkat, 72 h, read-out: IC50 values, Jurkat cells 72 h); above 3000 µM in [9] (Homo sapiens, MCF7, 24 h, read-out: IC50 values, MCF-7 cells 24 h). In addition, the IC50 in [9] (Homo sapiens, MCF7, 48 h, read-out: IC50 values, MCF-7 cells 48 h) was above 3000 µM; in [9] (Homo sapiens, MCF7, 72 h, read-out: IC50 values, MCF-7 cells 72 h) it was above 3000 µM. In addition, the “Histone H4 acetylation in HeLa cells (in words)” value in assay [5] was “clearly increased di- and tri-acetylated H4 molecules”. The “Number of Early Apoptotic cells (%)” value in assay [1] (4.5 mM) is 4.40 ± 1.27%; in [1] (9.0 mM) it was 8.40 ± 1.55%; in assay [1] (9.0 mM, listed as sinapinic acid), 8.4%. Also, the figures for the “Number of Late Apoptotic cells (%)” value in [1] (4.5 mM) and in [1] (9.0 mM) were 1.75 ± 0.78% and 3.25 ± 1.06%, respectively.

For `CCCC(=O)[O-].[Na+]` [Sodium butyrate, sodium butyrate], the IC50 is 970 ± 70 µM in [2]; 2630 ± 60 µM in assay [3] (24 h, read-out: IC50 values, HeLa cells 24 h); 2220 ± 130 µM in [3] (48 h, read-out: IC50 values, HeLa cells 48 h); 1220 ± 30 µM in [3] (72 h, listed as sodium butyrate, read-out: IC50 values, HeLa cells 72 h); 1200 ± 30 µM in assay [3] (setting [10]); above 3000 µM in assay [4] (24 h, read-out: IC50 values, Vero cells 24 h). Besides, the IC50 in assay [4] (48 h, read-out: IC50 values, Vero cells 48 h) was above 3000 µM; in assay [4] (72 h, read-out: IC50 values, Vero cells 72 h) it was above 3000 µM; in assay [6] (24 h, read-out: IC50 values, HT29 cells 24 h) it was above 3000 µM; in assay [6] (48 h, read-out: IC50 values, HT29 cells 48 h), above 3000 µM; in assay [6] (72 h, read-out: IC50 values, HT29 cells 72 h), 2570 ± 30 µM; in [7] (24 h, read-out: IC50 values, HCT116 cells 24 h) it was above 3000 µM. The IC50 in assay [7] (48 h, read-out: IC50 values, HCT116 cells 48 h) is 2200 ± 200 µM; in assay [7] (72 h, read-out: IC50 values, HCT116 cells 72 h), 2000 ± 50 µM; in assay [8] (24 h, read-out: IC50 values, Jurkat cells 24 h), above 3000 µM; in assay [8] (48 h, read-out: IC50 values, Jurkat cells 48 h), 2360 ± 190 µM; in [8] (72 h, read-out: IC50 values, Jurkat cells 72 h) it was 1500 ± 300 µM; in [9] (24 h, read-out: IC50 values, MCF-7 cells 24 h), above 3000 µM. The half-inhibitory concentration (IC50) in assay [9] (48 h, read-out: IC50 values, MCF-7 cells 48 h) is above 3000 µM; in [9] (72 h, read-out: IC50 values, MCF-7 cells 72 h), above 3000 µM. The “Number of Early Apoptotic cells (%)” value came out at 3.75 ± 1.06% in [1] (4.5 mM); 7.60 ± 1.27% in assay [1] (9.0 mM); 7.6% in assay [1] (9.0 mM, listed as sodium butyrate). The “Number of Late Apoptotic cells (%)” value was 1.00 ± 0.28% in assay [1] (4.5 mM) and 2.05 ± 1.06% in assay [1] (9.0 mM).
